Cc1cc(C(=O)O)ccc1[N+](=O)[O-]
Conditions	solubility (mole fraction)
in 1,4-dioxane, 283.15 K	0.0407
in 1,4-dioxane, 285.65 K	0.0428
in 1,4-dioxane, 288.15 K	0.0448
in 1,4-dioxane, 290.65 K	0.0469
in 1,4-dioxane, 293.15 K	0.0493
in 1,4-dioxane, 295.65 K	0.0519
in 1,4-dioxane, 298.15 K	0.0545
in 1,4-dioxane, 300.65 K	0.0571
in 1,4-dioxane, 303.15 K	0.06
in 1,4-dioxane, 305.65 K	0.0628
in 1,4-dioxane, 308.15 K	0.0658
in 1,4-dioxane, 310.65 K	0.0688
in 1,4-dioxane, 313.15 K	0.0718
in 1,4-dioxane, 315.65 K	0.0754
in 1,4-dioxane, 318.15 K	0.0802
in DMF, 283.15 K	0.0677
in DMF, 285.65 K	0.0709
in DMF, 288.15 K	0.0754
in DMF, 290.65 K	0.0795
in DMF, 293.15 K	0.0845
in DMF, 295.65 K	0.0908
in DMF, 298.15 K	0.0975
in DMF, 300.65 K	0.104
in DMF, 303.15 K	0.111
in DMF, 305.65 K	0.118
in DMF, 308.15 K	0.126
in DMF, 310.65 K	0.135
in DMF, 313.15 K	0.142
in DMF, 315.65 K	0.152
in DMF, 318.15 K	0.162
in NMP, 283.15 K	0.0856
in NMP, 285.65 K	0.0872
in NMP, 288.15 K	0.09
in NMP, 290.65 K	0.0933
in NMP, 293.15 K	0.0965
in NMP, 295.65 K	0.1
in NMP, 298.15 K	0.105
in NMP, 300.65 K	0.109
in NMP, 303.15 K	0.113
in NMP, 305.65 K	0.118
in NMP, 308.15 K	0.123
in NMP, 310.65 K	0.128
in NMP, 313.15 K	0.133
in NMP, 315.65 K	0.138
in NMP, 318.15 K	0.145
in acetone, 283.15 K	0.0204
in acetone, 285.65 K	0.0212
in acetone, 288.15 K	0.022
in acetone, 290.65 K	0.0228
in acetone, 293.15 K	0.0238
in acetone, 295.65 K	0.0247
in acetone, 298.15 K	0.026
in acetone, 300.65 K	0.0273
in acetone, 303.15 K	0.0285
in acetone, 305.65 K	0.0299
in acetone, 308.15 K	0.0311
in acetone, 310.65 K	0.0325
in acetone, 313.15 K	0.0338
in acetone, 315.65 K	0.0353
in acetone, 318.15 K	0.0372
in acetonitrile, 283.15 K	0.00255
in acetonitrile, 285.65 K	0.00276
in acetonitrile, 288.15 K	0.00302
in acetonitrile, 290.65 K	0.00328
in acetonitrile, 293.15 K	0.00355
in acetonitrile, 295.65 K	0.00382
in acetonitrile, 298.15 K	0.00412
in acetonitrile, 300.65 K	0.00438
in acetonitrile, 303.15 K	0.00469
in acetonitrile, 305.65 K	0.00498
in acetonitrile, 308.15 K	0.00529
in acetonitrile, 310.65 K	0.00564
in acetonitrile, 313.15 K	0.00598
in acetonitrile, 315.65 K	0.00638
in acetonitrile, 318.15 K	0.00688
in ethanol, 283.15 K	0.00751
in ethanol, 285.65 K	0.0078
in ethanol, 288.15 K	0.00818
in ethanol, 290.65 K	0.00866
in ethanol, 293.15 K	0.00915
in ethanol, 295.65 K	0.00964
in ethanol, 298.15 K	0.0102
in ethanol, 300.65 K	0.0108
in ethanol, 303.15 K	0.0113
in ethanol, 305.65 K	0.0119
in ethanol, 308.15 K	0.0125
in ethanol, 310.65 K	0.0132
in ethanol, 313.15 K	0.0138
in ethanol, 315.65 K	0.0146
in ethanol, 318.15 K	0.0155
in ethyl acetate, 283.15 K	0.0106
in ethyl acetate, 285.65 K	0.0111
in ethyl acetate, 288.15 K	0.0116
in ethyl acetate, 290.65 K	0.0123
in ethyl acetate, 293.15 K	0.0127
in ethyl acetate, 295.65 K	0.0134
in ethyl acetate, 298.15 K	0.014
in ethyl acetate, 300.65 K	0.0146
in ethyl acetate, 303.15 K	0.0153
in ethyl acetate, 305.65 K	0.0159
in ethyl acetate, 308.15 K	0.0167
in ethyl acetate, 310.65 K	0.0175
in ethyl acetate, 313.15 K	0.0185
in ethyl acetate, 315.65 K	0.0193
in ethyl acetate, 318.15 K	0.0205
in isopropanol, 283.15 K	0.00877
in isopropanol, 285.65 K	0.00915
in isopropanol, 288.15 K	0.00966
in isopropanol, 290.65 K	0.0102
in isopropanol, 293.15 K	0.0108
in isopropanol, 295.65 K	0.0115
in isopropanol, 298.15 K	0.0122
in isopropanol, 300.65 K	0.0129
in isopropanol, 303.15 K	0.0136
in isopropanol, 305.65 K	0.0143
in isopropanol, 308.15 K	0.0151
in isopropanol, 310.65 K	0.016
in isopropanol, 313.15 K	0.0169
in isopropanol, 315.65 K	0.0181
in isopropanol, 318.15 K	0.0192
in methanol, 283.15 K	0.00606
in methanol, 285.65 K	0.00664
in methanol, 288.15 K	0.00734
in methanol, 290.65 K	0.00809
in methanol, 293.15 K	0.00879
in methanol, 295.65 K	0.00956
in methanol, 298.15 K	0.0104
in methanol, 300.65 K	0.0111
in methanol, 303.15 K	0.012
in methanol, 305.65 K	0.0129
in methanol, 308.15 K	0.0137
in methanol, 310.65 K	0.0147
in methanol, 313.15 K	0.0158
in methanol, 315.65 K	0.0169
in methanol, 318.15 K	0.0184
in n-butanol, 283.15 K	0.00676
in n-butanol, 285.65 K	0.00725
in n-butanol, 288.15 K	0.00789
in n-butanol, 290.65 K	0.00844
in n-butanol, 293.15 K	0.00913
in n-butanol, 295.65 K	0.00994
in n-butanol, 298.15 K	0.0108
in n-butanol, 300.65 K	0.0116
in n-butanol, 303.15 K	0.0125
in n-butanol, 305.65 K	0.0134
in n-butanol, 308.15 K	0.0144
in n-butanol, 310.65 K	0.0153
in n-butanol, 313.15 K	0.0163
in n-butanol, 315.65 K	0.0174
in n-butanol, 318.15 K	0.0188
in n-propanol, 283.15 K	0.00726
in n-propanol, 285.65 K	0.00765
in n-propanol, 288.15 K	0.00815
in n-propanol, 290.65 K	0.00866
in n-propanol, 293.15 K	0.00914
in n-propanol, 295.65 K	0.00966
in n-propanol, 298.15 K	0.0103
in n-propanol, 300.65 K	0.0109
in n-propanol, 303.15 K	0.0115
in n-propanol, 305.65 K	0.0121
in n-propanol, 308.15 K	0.0129
in n-propanol, 310.65 K	0.0137
in n-propanol, 313.15 K	0.0145
in n-propanol, 315.65 K	0.0155
in n-propanol, 318.15 K	0.0164
in toluene, 283.15 K	0.0165
in toluene, 285.65 K	0.0174
in toluene, 288.15 K	0.0184
in toluene, 290.65 K	0.0191
in toluene, 293.15 K	0.0202
in toluene, 295.65 K	0.0211
in toluene, 298.15 K	0.0221
in toluene, 300.65 K	0.0231
in toluene, 303.15 K	0.0243
in toluene, 305.65 K	0.0253
in toluene, 308.15 K	0.0265
in toluene, 310.65 K	0.0279
in toluene, 313.15 K	0.0295
in toluene, 315.65 K	0.0314
in toluene, 318.15 K	0.0333
